Each structure is given as a SMILES string.

We go through one compound from patent US20080261945A1, “Compounds Having Activity at Nk3 Receptor and Uses Thereof in Medicine” (SMITHKLINE BEECHAM CORPORATION, priority 2004, published 2008).

The experiment has as its target T1, NK3 receptor (Homo sapiens, UniProt P29371).
T1 construct: expressed in transfected cells; host or cells: CHO cell lines (plasma membrane preparation)
T1 sequence (P29371 1-465): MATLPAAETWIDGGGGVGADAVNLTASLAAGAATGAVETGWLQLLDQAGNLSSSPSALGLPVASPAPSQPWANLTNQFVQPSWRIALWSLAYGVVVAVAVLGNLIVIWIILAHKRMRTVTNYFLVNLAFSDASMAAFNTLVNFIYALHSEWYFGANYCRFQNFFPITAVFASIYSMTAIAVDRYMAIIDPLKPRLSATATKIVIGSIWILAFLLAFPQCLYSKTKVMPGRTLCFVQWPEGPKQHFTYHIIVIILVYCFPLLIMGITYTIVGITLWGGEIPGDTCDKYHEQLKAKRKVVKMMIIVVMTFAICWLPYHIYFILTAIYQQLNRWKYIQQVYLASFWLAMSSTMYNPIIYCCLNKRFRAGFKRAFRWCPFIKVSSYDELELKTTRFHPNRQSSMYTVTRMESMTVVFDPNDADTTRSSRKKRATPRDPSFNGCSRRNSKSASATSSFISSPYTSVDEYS
Briefly: NK3 binding affinity, scintillation proximity assay (SPA). The conditions noted are these: 125I [MePhe7]-NKB; plasma membrane from CHO cell lines expressing NK3 receptors. The protocol: The NK3 binding affinity of the compounds of the invention was determined using the following scintillation proximity assay (SPA) (see H. M. Sarau et al, J. Pharmacol. Experimental Therapeutics 1997, 281(3), 1303-1311; H. M. Sarau et al, J. Pharmacol. Experimental Therapeutics 2000, 295(1), 373-381; G. A. M. Giardina et al J. Med. Chem. 1999, 42, 1053-1065). Polystyrene Leadseeker WGA-SPA beads (Amersham Biosciences) were mixed with plasma membrane prepared from CHO cell lines expressing NK3 receptors in a bead/membrane ratio of 20:1 (w/w) in assay buffer (75 mM Tris pH 7.8, 75 mM NaCl, 4 mM MnCl2, 1 mM EDTA, 0.05% Chaps, 1 mM PMSF). The mixture was placed on ice for 20 minutes to allow the formation of membrane/bead complex before BSA was added to a final concentration of 1%. After another 20 minutes incubation on ice, the bead/membrane complex was washed twice and suspended in assay buffer. ^125I [MePhe7]-NKB was then added to the bead/membrane complex. […] After 2-3 hours incubation at room temperature with shaking, the plates were spun for 2 min at 1100 rpm and measured in Viewlux imager (PerkinElmer) for 5 minutes with a 618-nm filter. Inhibition of the radioactive ligand binding to the NK3 receptor was measured by the reduction of signal. pKi was calculated using Kd of the radioactive ligand determined in a separate experiment.
On the technique in general: Scintillation proximity formats need no separation of bound from free tracer.

The term Ki denotes a measure of affinity in units of concentration, obtained from inhibition or displacement. A lower Ki goes with higher affinity. With `CC[C@H](NC(=O)c1c(COC[C@@H]2CCCN2C)c(-c2ccccc2)nc2ccccc12)c1ccccc1` [Example 1, 3-[({[(2S)-1-Methyl-2-pyrrolidinyl]methyl}oxy)methyl]-2-phenyl-N-[(1S)-1-phenylpropyl]-4-quinolinecarboxamide], affinity was put at a Ki of 6.31 nM.
